Entries after “also recorded” stand apart in the source; their conditions may differ.
Legend:
[1] = target: T1, CGRP receptors (Rattus norvegicus, UniProt Q63118+Q9JJ74); assay: Zinc bis(histidinate)-induced cutaneous vasodilation after CGRP receptor antagonist pre-treatment (LDF); assay type: in vivo; settings: rat hind paw; BIBN4096 3 mg/kg i.v. pre-treatment before Zn-bis-His 3, 10 and 30 mg/kg i.v.
T1 construct: from tissue; host or cells: live anaesthetized rat, hind-paw skin vasculature (in vivo)
Protocol: (§1) Rats were anaesthetized with urethane (2 g/kg i.p.) after light anaesthesia with inhalation of 5% isoflurane. A laser Doppler probe (OxyFlo probe MSP300XP; ADI Blood Flowmeter) was placed on one hind paw (hair removed with depilatory cream). The animal was allowed to stabilize for 30 min to establish baseline parameters. A single i.v. dose of zinc bis(histidinate) was then administered at 3 mg/kg. The haemodynamic and cutaneous blood flow measurements by laser Doppler flow (LDF) were recorded continuously for 15 min. Then, the effects of 10 mg/kg and 30 mg/kg doses of zinc bis(histidinate) were tested.
In order to better understand the effect of zinc bis(histidinate) on cutaneous blood flow, vasodilation mediated by sensory nerves was blocked by pre-treatment of the rat with a CGRP (calcitonin gene-related peptide) receptor antagonist. A dose of 3 mg/kg BIBN4096 (olcegepant, a known CGRP receptor antagonist was administered intravenously by slow infusion over 10 minutes prior to subsequent administration of zinc bis(histidinate) and measurement of cutaneous blood flow by LDF as described in Example 2.

[2] = tested on: rat hind paw; assay: Cutaneous blood flow by laser Doppler flow in anaesthetized rat hind paw; assay type: in vivo; settings: Zn-bis-His 3, 10 and 30 mg/kg i.v., L-His 67 mg/kg i.v.
Protocol: For in vivo measurements of cutaneous blood flow, an average of 3 s consecutive values calculated every 5 s were computed by LabChart software and the data were transformed as percentage of baseline (an average of 1.5 min recording before each dose). The area under the curve (AUC) for change from baseline values was calculated in Prism 8 software. MAP, hindquarter flow and conductance were taken immediately before and every 5 min after a single dose of treatment.
as §1

[3] = tested on: sheep during cardiopulmonary bypass; settings: cited from earlier work
[4] = tested on: rat mesenteric arteries; assay: Relaxation of isolated rat mesenteric arteries contracted with U46619 (myograph); assay type: cell-based; settings: arteries contracted with thromboxane mimetic U46619
Source text: Functional in vitro protocols in isolated arteries. Human internal mammary artery and saphenous vein or a range of vessels from rats and mice (left main or anterior descending coronary arteries [250-400 μm internal diameter, i.d.], second order pulmonary interlobar arteries [300-600 μm i.d.], second or third order mesenteric arteries [200-350 μm i.d.], interlobar renal arteries [250-350 μm i.d.], saphenous arteries or veins [300-600 μm i.d.]), or the thoracic aorta were dissected and placed in ice-cold PSS-A with the following composition (mmol/L, mM): NaCl 119; KCl 4.69; MgSO4·7H2O 1.17; KH2PO4 1.18; glucose 5.5; NaHCO3 25; CaCl2·6H2O 2.5 saturated with carbogen (O2 95%; CO2 5%) at pH 7.4. In addition, rat middle cerebral (250-400 μm i.d.) and basilar (250-450 μm i.d.) arteries were used and for these vessels the PSS-A contained 1.5 mM CaCl2 to minimize the occurrence of spontaneous contractions.
After isolation of vessels, ˜2 mm length segments of arteries were mounted in myograph chambers (Model 610M and 620M; Danish Myo Technology, Denmark) containing PSS-A at 37° C. for isometric force measurement as described previously. Contractile and relaxation responses using rat and mice isolated vessels were recorded with LabChart 7 and a PowerLab 4/30 A/D converter (AD Instruments Pty Ltd, Australia) while those including human isolated vessels were recorded with LabChart 8 (AD Instruments) and Myodaq and Myodata 2.01 (Maastricht University, Maastricht, Netherlands). To normalize the basal conditions, the vessels were passively stretched according to a normalization protocol and adjusted to a diameter setting of 90% of that determined for an equivalent transmural pressure of 100 mmHg (30 mmHg for veins). After allowing the tissues to equilibrate for 30 min, the arteries were exposed to a potassium depolarizing solution (124 mM K^+ replacing Na^+ in PSS; termed KPSS) and noradrenaline (10 μM) for 2 min (chemicals, their source and preparation are provided in the online supplement). A second exposure to KPSS solution (only) was used to provide a reference contraction.
Five structurally dissimilar zinc delivery agents (zinc pyrithione, zinc disulfiram, clioquinol, Zn(DTSM) and zinc bis(histidinate)) were administered to rat mesenteric arteries according to the protocols above and the extent to which the arteries contracted were recorded. Acetylcholine and clioquinol were also administered and contractions recorded.

[5] = Mean arterial pressure in anaesthetized rat (carotid artery catheter); assay type: in vivo; settings: bolus i.v. 3, 10 and 30 mg/kg, measured for 10 minutes
Protocol: In vivo blood pressure and flow measurement. Rats and mice were anaesthetized by inhalation of 5% isoflurane (in O2) followed by i.p. injection of pentobarbitone in rats (60 mg/kg; TROY Laboratories, NSW, Australia, maintained by top up doses of 10-20 mg/kg i.v.) or i.p. injection of urethane (2.5 g/kg; Sigma, maintained by top up doses of 0.05-0.1 g/kg i.v.). Animals were placed on a homeostatic blanket system to maintain body temperature at 37±1° C. Lignocaine (1% s.c.) was injected for placement of a tracheotomy tube (for mechanical ventilation), carotid artery and jugular vein catheters.
All drug treatments were administered via the jugular vein catheter. Pulsatile blood pressure, mean arterial pressure (MAP) and heart rate (HR; beats/min) were measured via the carotid artery catheter filled with heparinized (10 U/ml; Pfizer, NY, USA) saline 0.9% and connected to a pressure transducer (Argon Medical Devices, Athens, Greece) and the output was recorded with LabChart 7 and a Powerlab 8SP (AD Instruments). […]
An increase in cutaneous blood flow associated with vasorelaxation typically results in a decrease in arterial pressure. Mean arterial pressure in a rat after administration of zinc bis(histidine) (3 mg/kg, 10 mg/kg or 30 mg/kg) or L-histidine (67 mg/kg) was measured by a pressure transducer attached to a catheter inserted in carotid artery as described in Example 2.

[6] = tested on: ovine model of cardiopulmonary bypass; assay: Ovine cardiopulmonary bypass with intra-operative zinc bis(histidinate) infusion; assay type: in vivo; settings: sheep on CPB (2 h); 3, 10 and 30 mg/kg infusion i.v. every 20 min
Source text: Two merino ewes (35-50 kg bodyweight) were housed in individual metabolic cages with access to 5 litres of water and 800 g of oaten chaff daily. The sheep underwent a preparatory surgical procedure under isoflurane anaesthesia for the implantation of a transit-time flow probe around the renal artery for measurement of renal blood flow. Fibre-optic probes were inserted into the cerebral cortex, renal cortex and renal medulla for measurement of tissue perfusion, pO2 and temperature (see Calzavacca et al., 2015, Am J Physiol Regul Integr Comp Physiol 308, R832-839). Catheters were inserted into the renal and jugular veins, carotid artery and bladder. The experiments were undertaken five days later. Intra-operative analgesics and antibiotics were administered as described previously (Lankadeva et al., 2019, Kidney Int 95 1338-1346; Evans et al., 2020, Am J Physiol Regul Integr Comp Physiol 318, R206-R213; Lankadeva et al., 2021, Acta Physiologica doi.org/10.1111/apha.13596, e13596). Mean arterial pressure, renal blood flow, cerebral cortical, renal cortical and renal medullary tissue perfusion, and temperature were continuously recorded across a series of experimental periods. Arterial, mixed venous and renal venous blood samples were collected every 30 min for blood oximetry and biochemistry (ABL systems 625, Copenhagen, Denmark).
During the first 30 minutes, sheep were awake and unrestrained in their home metabolic cage. Anaesthesia was induced with sodium thiopental (15 mg/kg) and after endotracheal intubation, maintained on isoflurane (2.0%-2.5%) via an artificial ventilator prior to cardiopulmonary bypass or via a membrane oxygenator during cardiopulmonary bypass (FiO2: 60%). This FiO2 was chosen because it is standard during cardiac surgery at the inventors affiliated clinical centre. From the onset of anaesthesia, sheep received a maintenance infusion of compound sodium lactate (2 mL/kg/h; Baxter, NSW, Australia) for the entire duration of the experiment. Once stable anaesthesia was attained, a second experimental period (30 minutes) commenced. Cardiopulmonary bypass was then achieved at a target pump flow of 80 mL/kg/min, a target MAP of 65 mmHg, and a target body temperature of 34.5° C. The prefusion circuit was primed with 300-500 mL of blood from a donor animal, 1 g cefazolin (AFT Pharmaceuticals, NSW, Australia), 50 mL mannitol (20% wt/vol Osmitrol, Baxter, NSW, Australia) and 10 000 IU heparin, made up to 1.3 L with compound sodium lactate. Metaraminol (Metaraminol Montrose, Montrose Life Sciences, NSW, Australia) was administered in boluses of ˜0.25 mg (using a 0.5 mg/mL solution) only in cases where increasing pump flow was not sufficient to attain the target mean arterial pressure during cardiopulmonary bypass. Once stable cardiopulmonary bypass was attained, the sheep was maintained for ˜2 hours before starting a zinc bis(histidinate) infusion (18 mg/ml solution made freshly in 0.45% saline solution and filtered). For the first 20 min, volume equivalent to 3 mg/kg zinc bis(histidinate) was infused, followed by 20 minute of 10 mg/kg and then 20 min of 30 mg/kg zinc bis(histidinate). Plasma was collected every 30 min following the start of anaesthesia. Zinc levels in plasma were analysed using inductively coupled plasma mass spectroscopy (ICP-MS).

[7] = listed as Zinc bis(histidinate)

T1 sequence (Q63118 24-464): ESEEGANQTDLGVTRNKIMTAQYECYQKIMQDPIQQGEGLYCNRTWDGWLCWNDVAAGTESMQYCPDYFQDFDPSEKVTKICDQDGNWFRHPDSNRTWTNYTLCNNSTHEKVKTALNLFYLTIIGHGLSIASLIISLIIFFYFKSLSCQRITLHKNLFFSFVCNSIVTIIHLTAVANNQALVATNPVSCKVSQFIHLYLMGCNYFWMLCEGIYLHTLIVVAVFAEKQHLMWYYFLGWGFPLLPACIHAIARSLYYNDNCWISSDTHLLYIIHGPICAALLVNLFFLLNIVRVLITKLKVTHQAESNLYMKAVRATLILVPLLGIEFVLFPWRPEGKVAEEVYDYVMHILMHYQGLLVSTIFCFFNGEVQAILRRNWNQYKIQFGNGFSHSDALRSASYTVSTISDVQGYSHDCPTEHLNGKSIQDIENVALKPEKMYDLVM
T1 sequence (Q9JJ74 27-148): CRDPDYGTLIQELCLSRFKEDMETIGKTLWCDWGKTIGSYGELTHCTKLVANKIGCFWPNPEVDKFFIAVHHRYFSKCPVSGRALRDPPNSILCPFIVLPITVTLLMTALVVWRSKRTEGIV

**Q.** Which “Effect on zinc bis(histidinate)-induced vasodilation (area under the vasodilation curve, LDF)” value [1] does the source give for `NCCCC[C@H](NC(=O)[C@@H](Cc1cc(Br)c(O)c(Br)c1)NC(=O)N1CCC(N2Cc3ccccc3NC2=O)CC1)C(=O)N1CCN(c2ccncc2)CC1` [BIBN4096, olcegepant] here?
**A.** Its value is “reduction in vasodilation; also recorded: attenuated the effect”.

**Q.** With `N[C@@H](Cc1c[nH]cn1)C(=O)O` [L-histidine, reference compound] as the molecule, how does the “Cutaneous blood flow (laser Doppler flux)” value [2] read?
**A.** Its value is “did result in the same increase”.

**Q.** What about the “Cutaneous blood flow (laser Doppler flux)” value ([2]; listed as L-His) of the same molecule?
**A.** Its value is “did not cause an increase in cutaneous blood flow”.

**Q.** With `C[C@H](N)[C@H](O)c1cccc(O)c1` [Metaraminol] as the molecule, how does the Systemic vascular conductance [3] read?
**A.** The Systemic vascular conductance was “increased systemic vascular conductance”.

**Q.** For `CNC([S-])=NN=C(C)C(C)=NN=C([S-])NC.[Zn+2]` [Zn(DTSM)], which “Relaxation of rat mesenteric arteries” value [4] is on record?
**A.** Its value is “showed relaxation”.

**Q.** Which “Relaxation of rat mesenteric arteries” value [4] does the source give for `Oc1c(I)cc(Cl)c2cccnc12` [clioquinol] here?
**A.** The value was “showed relaxation”.

**Q.** Which “Relaxation of rat mesenteric arteries” value [4] does the source give for `N[C@@H](Cc1c[nH]cn1)C(=O)O` [histidine] here?
**A.** The value was “did not provide the same relaxation; also recorded: little relaxation”.

**Q.** Which “Relaxation of rat mesenteric arteries” value [4] does the source give for `[Zn]` [zinc] here?
**A.** The value was “minimal effects; also recorded: little relaxation”.

**Q.** Which results are given for zinc bis(histidinate)?
**A.** Relaxation of rat mesenteric arteries [4]: showed relaxation; also recorded: greater relaxation; Relaxation of rat mesenteric arteries ([4]; listed as zinc-bis-histidinate): dependent on the concentration; Cutaneous blood flow (laser Doppler flux) [2]: increased cutaneous blood flow; Cutaneous blood flow (laser Doppler flux) [2, 7]: caused an increase in cutaneous blood flow; Cutaneous blood flow (laser Doppler flux) ([2]; listed as zinc bis(histidine)): increased blood flow; Mean arterial pressure [5]: expected decrease in arterial pressure was not observed; Mean arterial pressure [5, 7]: does not change mean arterial pressure; Cerebral cortical microcirculatory perfusion [6]: rescued; Renal blood flow [6]: dose-dependent improvement; Renal cortical microcirculatory perfusion [6]: rescued; Renal medullary microcirculatory perfusion [6]: rescued; Renal oxygen delivery [6]: dose-dependent improvement; Renal vascular resistance [6]: dose-dependent improvement; Systemic mean arterial pressure [6]: without compromising systemic mean arterial pressure

**Q.** Which “Relaxation of rat mesenteric arteries” value [4] does the source give for zinc disulfiram here?
**A.** The value was “showed relaxation”.

**Q.** For zinc pyrithione, which “Relaxation of rat mesenteric arteries” value [4] is on record?
**A.** The value was “showed relaxation”.

From US20250009790A1, “METHODS FOR INDUCING VASODILATION” (THE FLOREY INSTITUTE OF NEUROSCIENCE AND MENTAL HEALTH, priority 2021, published 2025)
